The nature of data set [1]: Plasma stability of 2-PMPA prodrugs, human plasma. It is filed as in vitro ADME. The conditions noted are these: 10 μM, 37 °C.
The conditions of data set [2]: rats; for tissue/plasma ratio: AUC tissue/AUC plasma of 2-PMPA.
The conditions of data set [3]: rats; for tissue/plasma ratio: AUC tissue/AUC plasma of 2-PMPA. This is another data set of the same source.
Data set [4] concerns the target recombinant human GCPII protein (Homo sapiens, UniProt Q04609). In words: GCPII radioenzymatic activity assay. The class given is biochemical. The note with it: read-out: IC50(±SEM).
The conditions of data set [5]: cited from earlier work.
The conditions of data set [6]: primates, IN 2-PMPA 30 mg/kg; cited from earlier work.
For data set [7] the following is noted: equivalent 2-PMPA administration, cited from earlier work.
In data set [8] the test system is GCPII. The note with it: cited from earlier work.

Like-named read-outs stand apart in the source and are kept apart here.

As usually defined, the Cmax is the peak of the concentration-time curve. For orientation: IC50 means the concentration at which inhibition is half-maximal.

Chain of recombinant human GCPII protein (Q04609 whole entry): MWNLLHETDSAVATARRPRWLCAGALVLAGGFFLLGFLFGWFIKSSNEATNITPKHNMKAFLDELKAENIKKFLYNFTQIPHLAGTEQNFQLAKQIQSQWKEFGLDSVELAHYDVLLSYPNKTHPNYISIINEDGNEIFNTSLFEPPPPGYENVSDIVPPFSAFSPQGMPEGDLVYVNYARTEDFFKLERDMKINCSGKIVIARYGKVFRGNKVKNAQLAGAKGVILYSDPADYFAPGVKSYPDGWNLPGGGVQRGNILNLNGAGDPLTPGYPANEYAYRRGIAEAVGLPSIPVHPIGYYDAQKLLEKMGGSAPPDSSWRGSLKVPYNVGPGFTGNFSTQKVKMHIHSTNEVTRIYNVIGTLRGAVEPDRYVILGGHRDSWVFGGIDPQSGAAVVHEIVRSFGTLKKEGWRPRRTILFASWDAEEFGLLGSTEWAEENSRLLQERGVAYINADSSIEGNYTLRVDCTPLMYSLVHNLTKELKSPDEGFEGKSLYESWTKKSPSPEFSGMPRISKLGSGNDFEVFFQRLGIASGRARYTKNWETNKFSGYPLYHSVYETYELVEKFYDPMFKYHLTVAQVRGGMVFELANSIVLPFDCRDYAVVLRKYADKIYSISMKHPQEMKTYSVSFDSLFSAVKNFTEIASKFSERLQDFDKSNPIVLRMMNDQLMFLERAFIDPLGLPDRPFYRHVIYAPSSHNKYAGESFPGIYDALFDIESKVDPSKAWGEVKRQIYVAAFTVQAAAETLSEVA

Consider `CC(=O)Oc1ccc(COC(=O)CCC(CP(=O)(O)O)C(=O)O)cc1` (stereo not shown) [Compound 1, γ-(4-acetoxybenzyl)-2-PMPA], for which the “Plasma stability % remaining @60 min Human” value in data set [1] was found to be 42%. Also, the tissue/plasma ratio in data set [2] (cerebellum, IV) was 0.04; in data set [2] (cortex, IV), 0.04; in data set [2] (olfactory bulb, IV), 0.03; in data set [2] (plasma, IV), 1; in data set [2] (sciatic nerve, IV), 0.21; in data set [3] (cerebellum, IN), 0.26. Besides, the tissue/plasma ratio was 2.2 in data set [3] (olfactory bulb, IN); 1 in data set [3] (plasma, IN); 0.84 in data set [3] (sciatic nerve, IN). Besides, the “fold lower 2-PMPA level after IV as compared to IN” value was 4 fold in data set [2] (cerebellum), 4.5 fold in data set [2] (cortex) and 5 fold in data set [2] (sciatic nerve). For the same molecule, the “intact prodrug in brain or sciatic nerve” value is “No intact prodrug was quantifiable” in data set [2] (IV, any time point) and “No intact prodrug was quantifiable” in data set [3] (IN, any time point). The Cmax is 0.2 µM in data set [2] (read-out: intact prodrug Cmax in plasma, IV, 10 mg/kg equivalent) and 22 µM in data set [3] (read-out: intact prodrug Cmax in plasma, IN, 10 mg/kg equivalent). Further, the “improvement of sciatic nerve to plasma ratio over free 2-PMPA” value in data set [3] (IN compound 1 versus equivalent dose of 2-PMPA) came out at 7 fold. Besides, in data set [3] (IN, 10 mg/kg equivalent), the “intact prodrug AUC in plasma” value turned out to be 8.04 µM·h. The IC50 in data set [4] was 3 ± 0.2 nM.

In the case of `O=C(O)CCC(CP(=O)(O)O)C(=O)O` (stereo not shown) [Compound 2-PMPA, 2-(Phosphonomethyl)pentanedioic acid], the “oral bioavailability (F)” value in data set [5] was less than 2%. In addition, in data set [6], the “2-PMPA concentration in CSF” value is […]. In addition, the entries for the “plasma exposure (AUC)” value in data set [7] (IN route) and in data set [7] (intraperitoneal (IP) route) were 79.1 µM·h and 77.1 µM·h, respectively. Further, in data set [8], the IC50 is […].

In the case of `CCCCOC(=O)CCC(CP(=O)(O)O)C(=O)O` (stereo not shown) [Compound 3], the IC50 in data set [4] (GCPII inhibition) was found to be 1 ± 0.1 nM.

With `O=C(CCC(CP(=O)(O)O)C(=O)O)OCc1ccccc1` (stereo not shown) [Compound 4], the IC50 in data set [4] (GCPII inhibition) worked out at 20 ± 1 nM.

With `CCCCCCCCOC(=O)CCC(CP(=O)(O)O)C(=O)O` (stereo not shown) [Compound 5], the 50% inhibitory concentration (IC50) in data set [4] (GCPII inhibition) came to 2 ± 0.2 nM.

(Values after PMC5795618 (Molecular pharmaceutics, 2017).)
